Data: ChEMBL document CHEMBL1153838, “Optimization of the dosage of flucytosine in combination with amphotericin B for disseminated candidiasis: a pharmacodynamic rationale for reduced dosing” (2007)
≈ marks a conversion by molar mass, not a printed value.

Columns and labels:
Format in all cases: functional
Candida [1] = assay: Antifungal activity against Candida isolates
[2] = T>MIC in Candida species infected patients at 25 mg/kg/day administered as four divided doses
Candida [3] = assay: Antifungal activity against Candida species infected patients assessed as residual fungal burden at 0.1 mg/kg/day administered as single dose
Candida [4] = assay: Antifungal activity against Candida species infected patients assessed as residual fungal burden at 0.3 mg/kg/day administered as single dose
Candida [5] = assay: Antifungal activity against Candida species infected patients assessed as residual fungal burden at 0.6 mg/kg/day administered as single dose
Candida albicans = assay: Antifungal activity against Candida albicans isolates by broth microdilution method
Candida [6] = assay: Antifungal activity against Candida isolates by CLSI methods

Row | MIC (Candida [1]) | T>MIC [2] | MIC (Candida albicans) | MIC90 (Candida [6]) | SMILES | log10CFU/g (Candida [3]) | log10CFU/g (Candida [4]) | log10CFU/g (Candida [5])
1 | ≤ 1 µg/mL | 100% |  |  | C[C@@H]1[C@H](O)[C@@H](C)/C=C/C=C/C=C/C=C/C=C/C=C/C=C/[C@H](O[C@@H]2O[C@H](C)[C@@H](O)[C@H](N)[C@@H]2O)C[C@@H]2O[C@](O)(C[C@@H](O)C[C@@H](O)[C@H](O)CC[C@@H](O)C[C@@H](O)CC(=O)O[C@H]1C)C[C@H](O)[C@H]2C(=O)O [AMPHOTERICIN B] | 2.2 | 1 | 0.6
2 |  |  | 0.125 µg/mL (≈ 0.968 µM) | 1 µg/mL (≈ 7.75 µM) | Nc1nc(=O)[nH]cc1F [FLUCYTOSINE] |  |  | 
